Experimental data taken from ChEMBL document CHEMBL4699583 (J Med Chem, 2020).
Active and inactive are the calls of the source. No cut-off for these calls is given here.

How the values were obtained:
[1] = target: Muscarinic acetylcholine receptor M2 (Homo sapiens) (UniProt P08172); assay: Agonist activity at human muscarinic acetylcholine receptor M2 at 2 uM by cell based cAMP assay; format: functional
[2] = target: cGMP-inhibited 3',5'-cyclic phosphodiesterase 3A (Homo sapiens) (UniProt Q14432); assay: Inhibition of human PDE3A at 2 uM
[3] = target: Insulin receptor (Homo sapiens) (UniProt P06213); assay: Inhibition of human INSR at 2 uM
[4] = target: 5-hydroxytryptamine receptor 1A (Homo sapiens) (UniProt P08908); assay: Agonist activity at human 5HT1A receptor at 2 uM by cell based cAMP assay; format: functional
[5] = target: 5-hydroxytryptamine receptor 1B (Homo sapiens) (UniProt P28222); assay: Agonist activity at human 5HT1B receptor at 2 uM by cell based cAMP assay; format: functional
[6] = target: Sodium-dependent serotonin transporter (Homo sapiens) (UniProt P31645); assay: Inhibition of human serotonin transporter at 2 uM by cell based assay
[7] = target: Voltage-gated potassium channel, IKs; KCNQ1(Kv7.1)/KCNE1(MinK) (Homo sapiens, UniProt P51787+P15382); assay: Activation of human KvLQT1/mink at 2 uM by thallium flux assay; format: protein-complex assay
[8] = target: D(1A) dopamine receptor (Homo sapiens) (UniProt P21728); assay: Antagonist activity at human dopamine D1 receptor at 2 uM by cell based cAMP assay; format: functional
[9] = target: Mu-type opioid receptor (Homo sapiens) (UniProt P35372); assay: Agonist activity at human mu opioid receptor at 2 uM by cell based cAMP assay; format: functional
[10] = target: Cannabinoid receptor 1 (Homo sapiens) (UniProt P21554); assay: Antagonist activity at human cannabinoid receptor 1 at 2 uM by cell based cAMP assay; format: functional
[11] = target: DNA topoisomerase 2-alpha (Homo sapiens, UniProt P11388); assay: Poison activity at human topoisomerase 2alpha assessed as DNA cleavage by measuring linear DNA formation using supercoiled pBR322 DNA as substrate at 5 to 200 uM measured after 6 mins by agarose gel electrophoresis method; details: 0.1 h, dose 5-200 µM
[12] = target: Cholecystokinin receptor type A (Homo sapiens) (UniProt P32238); assay: Antagonist activity at human cholecystokinin typeA receptor at 2 uM by cell based calcium flux assay; format: functional
[13] = target: Amine oxidase [flavin-containing] A (Homo sapiens, UniProt P21397); assay: Inhibition of human MAOA at 2 uM
[14] = target: Histamine H2 receptor (Homo sapiens) (UniProt P25021); assay: Agonist activity at human histamine H2 receptor at 2 uM by cell based cAMP assay; format: functional
[15] = target: D(1A) dopamine receptor (Homo sapiens) (UniProt P21728); assay: Agonist activity at human dopamine D1 receptor at 2 uM by cell based cAMP assay; format: functional
[16] = target: Glucocorticoid receptor (Homo sapiens) (UniProt P04150); assay: Agonist activity at human glucocorticoid receptor at 2 uM by cell based assay
[17] = target: 5-hydroxytryptamine receptor 1B (Homo sapiens) (UniProt P28222); assay: Antagonist activity at human 5HT1B receptor at 2 uM by cell based cAMP assay; format: functional
[18] = target: Rho-associated protein kinase 1 (Homo sapiens) (UniProt Q13464); assay: Inhibition of human ROCK1 at 2 uM
[19] = target: Alpha-2A adrenergic receptor (Homo sapiens) (UniProt P08913); assay: Agonist activity at human alpha-2A adrenergic receptor at 2 uM by cell based cAMP assay; format: functional
[20] = target: Delta-type opioid receptor (Homo sapiens) (UniProt P41143); assay: Agonist activity at human delta opioid receptor at 2 uM by cell based cAMP assay; format: functional
[21] = target: Tyrosine-protein kinase Lck (Homo sapiens) (UniProt P06239); assay: Inhibition of human LCK at 2 uM
[22] = target: GABA-A receptor; alpha-1/beta-2/gamma-2 (Homo sapiens) (UniProt P14867+P47870+P18507); assay: Activation of human GABA alpha1beta2gamma2 receptor at 2 uM by cell based assay
[23] = target: Alpha-1A adrenergic receptor (Homo sapiens) (UniProt P35348); assay: Antagonist activity at human ADRA1A at 2 uM by cell based calcium flux assay; format: functional
[24] = target: Androgen receptor (Homo sapiens) (UniProt P10275); assay: Agonist activity at human androgen receptor at 2 uM by cell based nuclear translocation assay
[25] = target: Adenosine receptor A2a (Homo sapiens) (UniProt P29274); assay: Agonist activity at human adenosine A2A receptor at 2 uM by cell based calcium flux assay; format: functional
[26] = target: Neuronal acetylcholine receptor; alpha4/beta2 (Homo sapiens) (UniProt P17787+P43681); assay: Inhibition of human alpha4beta2 nACHR at 2 uM by cell based calcium flux assay
[27] = target: 5-hydroxytryptamine receptor 1A (Homo sapiens) (UniProt P08908); assay: Antagonist activity at human 5HT1A receptor at 2 uM by cell based cAMP assay; format: functional
[28] = target: Endothelin-1 receptor (Homo sapiens) (UniProt P25101); assay: Antagonist activity at human endothelin 1 receptor at 2 uM by cell based calcium flux assay; format: functional
[29] = target: Histamine H1 receptor (Homo sapiens) (UniProt P35367); assay: Agonist activity at human histamine H1 receptor at 2 uM by cell based calcium flux assay; format: functional
[30] = target: Delta-type opioid receptor (Homo sapiens) (UniProt P41143); assay: Antagonist activity at human delta opioid receptor at 2 uM by cell based cAMP assay; format: functional
[31] = target: Voltage-dependent L-type calcium channel subunit alpha-1C (Homo sapiens, UniProt Q13936); assay: Inhibition of human L-type calcium channel Cav1.2 at 2 uM by cell based assay
[32] = target: Cannabinoid receptor 2 (Homo sapiens) (UniProt P34972); assay: Antagonist activity at human cannabinoid receptor 2 at 2 uM by cell based cAMP assay; format: functional
[33] = target: Cholecystokinin receptor type A (Homo sapiens) (UniProt P32238); assay: Agonist activity at human cholecystokinin typeA receptor at 2 uM by cell based calcium flux assay; format: functional
[34] = species on record: Homo sapiens; assay: Activation of human 5HT3A channel at 2 uM by cell based calcium flux assay
[35] = target: Histamine H1 receptor (Homo sapiens) (UniProt P35367); assay: Antagonist activity at human histamine H1 receptor at 2 uM by cell based calcium flux assay; format: functional
[36] = Clearance in C57B6/J mouse at 10 mg/kg, ip administered as single dose by UPLC/MS TQD analysis; format: ADME, organism-based; details: in vivo
[37] = target: Vascular endothelial growth factor receptor 2 (Homo sapiens) (UniProt P35968); assay: Inhibition of human VEGFR2 at 2 uM
[38] = target: Muscarinic acetylcholine receptor M1 (Homo sapiens) (UniProt P11229); assay: Antagonist activity at human muscarinic acetylcholine receptor M1 at 2 uM by cell based calcium flux assay; format: functional
[39] = target: Kappa-type opioid receptor (Homo sapiens) (UniProt P41145); assay: Agonist activity at human kappa opioid receptor at 2 uM by cell based cAMP assay; format: functional

Chain of Delta-type opioid receptor (Homo sapiens) (P41143 whole entry): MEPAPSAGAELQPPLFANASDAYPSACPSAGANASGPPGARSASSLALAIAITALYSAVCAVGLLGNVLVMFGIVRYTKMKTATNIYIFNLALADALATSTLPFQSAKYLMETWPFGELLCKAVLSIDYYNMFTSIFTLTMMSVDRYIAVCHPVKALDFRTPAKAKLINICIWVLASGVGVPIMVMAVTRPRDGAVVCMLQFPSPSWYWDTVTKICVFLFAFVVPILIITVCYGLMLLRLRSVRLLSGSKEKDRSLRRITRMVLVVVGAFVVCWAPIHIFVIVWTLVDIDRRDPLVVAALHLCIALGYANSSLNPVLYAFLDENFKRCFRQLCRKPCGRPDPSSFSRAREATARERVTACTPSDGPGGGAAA
Chain of Cholecystokinin receptor type A (Homo sapiens) (P32238 whole entry): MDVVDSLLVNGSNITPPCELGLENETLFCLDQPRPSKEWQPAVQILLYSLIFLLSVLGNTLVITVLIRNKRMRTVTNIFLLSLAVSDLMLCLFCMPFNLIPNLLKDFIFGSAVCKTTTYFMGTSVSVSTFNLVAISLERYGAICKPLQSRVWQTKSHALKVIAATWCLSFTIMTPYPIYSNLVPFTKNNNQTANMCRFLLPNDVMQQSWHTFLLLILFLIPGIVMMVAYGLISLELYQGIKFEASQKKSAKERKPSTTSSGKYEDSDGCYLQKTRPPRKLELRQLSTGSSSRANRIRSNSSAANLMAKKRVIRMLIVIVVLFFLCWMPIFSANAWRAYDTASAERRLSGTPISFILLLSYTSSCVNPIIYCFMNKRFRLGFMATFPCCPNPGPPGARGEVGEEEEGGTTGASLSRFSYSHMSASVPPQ
Chain of 5-hydroxytryptamine receptor 1A (Homo sapiens) (P08908 whole entry): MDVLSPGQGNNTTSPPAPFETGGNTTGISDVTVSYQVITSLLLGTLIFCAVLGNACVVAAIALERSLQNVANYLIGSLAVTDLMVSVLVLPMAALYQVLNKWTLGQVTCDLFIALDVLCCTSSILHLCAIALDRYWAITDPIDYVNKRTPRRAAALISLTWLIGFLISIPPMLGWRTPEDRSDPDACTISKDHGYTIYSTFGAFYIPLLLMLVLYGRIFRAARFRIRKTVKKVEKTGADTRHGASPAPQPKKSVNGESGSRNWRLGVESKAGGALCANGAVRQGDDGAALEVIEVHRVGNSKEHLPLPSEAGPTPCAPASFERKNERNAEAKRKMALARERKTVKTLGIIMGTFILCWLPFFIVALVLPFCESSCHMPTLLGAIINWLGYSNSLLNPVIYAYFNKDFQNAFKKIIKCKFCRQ
Chain of Histamine H1 receptor (Homo sapiens) (P35367 whole entry): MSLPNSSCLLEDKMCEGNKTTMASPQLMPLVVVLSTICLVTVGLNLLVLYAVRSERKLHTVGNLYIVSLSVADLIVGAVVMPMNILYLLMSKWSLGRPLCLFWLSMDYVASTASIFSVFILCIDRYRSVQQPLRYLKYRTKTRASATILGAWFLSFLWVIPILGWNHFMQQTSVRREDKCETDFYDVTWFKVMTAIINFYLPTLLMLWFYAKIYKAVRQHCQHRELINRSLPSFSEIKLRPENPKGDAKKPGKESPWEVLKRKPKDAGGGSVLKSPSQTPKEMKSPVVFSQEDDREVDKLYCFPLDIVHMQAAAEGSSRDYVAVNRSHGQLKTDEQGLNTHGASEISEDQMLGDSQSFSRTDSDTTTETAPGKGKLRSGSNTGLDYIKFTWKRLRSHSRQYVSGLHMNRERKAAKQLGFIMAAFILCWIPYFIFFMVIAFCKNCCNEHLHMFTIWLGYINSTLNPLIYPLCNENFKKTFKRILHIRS
Chain of D(1A) dopamine receptor (Homo sapiens) (P21728 whole entry): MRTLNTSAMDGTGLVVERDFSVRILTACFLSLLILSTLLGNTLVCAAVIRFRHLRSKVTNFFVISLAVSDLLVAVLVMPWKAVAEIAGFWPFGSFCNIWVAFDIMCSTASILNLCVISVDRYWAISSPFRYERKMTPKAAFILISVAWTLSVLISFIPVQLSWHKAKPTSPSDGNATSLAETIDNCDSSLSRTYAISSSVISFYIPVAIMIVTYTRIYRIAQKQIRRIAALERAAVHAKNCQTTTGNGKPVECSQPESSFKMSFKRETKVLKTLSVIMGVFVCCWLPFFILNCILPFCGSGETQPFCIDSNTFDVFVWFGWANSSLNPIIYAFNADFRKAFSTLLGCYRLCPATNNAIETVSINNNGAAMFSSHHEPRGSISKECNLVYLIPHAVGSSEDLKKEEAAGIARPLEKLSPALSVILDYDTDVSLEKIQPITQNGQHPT
Chain of 5-hydroxytryptamine receptor 1B (Homo sapiens) (P28222 whole entry): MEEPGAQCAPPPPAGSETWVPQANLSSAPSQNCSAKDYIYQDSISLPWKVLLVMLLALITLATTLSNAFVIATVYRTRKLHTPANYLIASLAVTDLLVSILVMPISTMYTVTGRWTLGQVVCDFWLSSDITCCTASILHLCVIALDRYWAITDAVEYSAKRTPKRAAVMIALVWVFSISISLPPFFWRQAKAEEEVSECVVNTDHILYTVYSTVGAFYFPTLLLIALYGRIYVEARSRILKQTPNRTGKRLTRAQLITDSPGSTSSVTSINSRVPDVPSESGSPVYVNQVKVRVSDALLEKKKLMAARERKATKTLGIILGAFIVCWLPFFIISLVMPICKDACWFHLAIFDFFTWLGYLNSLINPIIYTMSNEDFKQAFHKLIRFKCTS
Chain of Amine oxidase [flavin-containing] A (P21397 whole entry): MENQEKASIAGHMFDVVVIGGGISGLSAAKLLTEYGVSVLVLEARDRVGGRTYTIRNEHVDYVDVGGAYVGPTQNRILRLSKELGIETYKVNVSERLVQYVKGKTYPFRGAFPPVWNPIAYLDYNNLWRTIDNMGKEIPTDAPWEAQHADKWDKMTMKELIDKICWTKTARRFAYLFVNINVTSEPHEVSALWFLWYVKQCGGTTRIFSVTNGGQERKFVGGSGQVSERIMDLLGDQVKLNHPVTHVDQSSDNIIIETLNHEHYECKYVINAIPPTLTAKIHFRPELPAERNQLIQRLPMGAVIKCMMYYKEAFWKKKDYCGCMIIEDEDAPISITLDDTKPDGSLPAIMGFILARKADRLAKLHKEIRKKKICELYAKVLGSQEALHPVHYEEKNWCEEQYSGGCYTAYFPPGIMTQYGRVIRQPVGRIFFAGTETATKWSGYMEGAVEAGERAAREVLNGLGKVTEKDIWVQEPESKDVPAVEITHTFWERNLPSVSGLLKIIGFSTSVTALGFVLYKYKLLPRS
Chain of Adenosine receptor A2a (Homo sapiens) (P29274 whole entry): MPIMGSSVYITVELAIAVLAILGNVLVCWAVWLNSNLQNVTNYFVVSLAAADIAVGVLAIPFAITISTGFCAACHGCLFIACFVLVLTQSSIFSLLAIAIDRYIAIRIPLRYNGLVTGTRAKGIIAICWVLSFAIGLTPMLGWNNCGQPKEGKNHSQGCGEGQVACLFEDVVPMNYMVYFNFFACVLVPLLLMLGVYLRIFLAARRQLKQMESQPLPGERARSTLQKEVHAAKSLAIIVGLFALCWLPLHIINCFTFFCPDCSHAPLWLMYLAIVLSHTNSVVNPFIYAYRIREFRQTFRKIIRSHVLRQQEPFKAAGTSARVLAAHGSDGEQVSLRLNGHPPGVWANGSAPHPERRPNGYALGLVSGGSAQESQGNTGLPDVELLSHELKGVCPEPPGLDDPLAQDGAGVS
Chain of DNA topoisomerase 2-alpha (P11388 whole entry): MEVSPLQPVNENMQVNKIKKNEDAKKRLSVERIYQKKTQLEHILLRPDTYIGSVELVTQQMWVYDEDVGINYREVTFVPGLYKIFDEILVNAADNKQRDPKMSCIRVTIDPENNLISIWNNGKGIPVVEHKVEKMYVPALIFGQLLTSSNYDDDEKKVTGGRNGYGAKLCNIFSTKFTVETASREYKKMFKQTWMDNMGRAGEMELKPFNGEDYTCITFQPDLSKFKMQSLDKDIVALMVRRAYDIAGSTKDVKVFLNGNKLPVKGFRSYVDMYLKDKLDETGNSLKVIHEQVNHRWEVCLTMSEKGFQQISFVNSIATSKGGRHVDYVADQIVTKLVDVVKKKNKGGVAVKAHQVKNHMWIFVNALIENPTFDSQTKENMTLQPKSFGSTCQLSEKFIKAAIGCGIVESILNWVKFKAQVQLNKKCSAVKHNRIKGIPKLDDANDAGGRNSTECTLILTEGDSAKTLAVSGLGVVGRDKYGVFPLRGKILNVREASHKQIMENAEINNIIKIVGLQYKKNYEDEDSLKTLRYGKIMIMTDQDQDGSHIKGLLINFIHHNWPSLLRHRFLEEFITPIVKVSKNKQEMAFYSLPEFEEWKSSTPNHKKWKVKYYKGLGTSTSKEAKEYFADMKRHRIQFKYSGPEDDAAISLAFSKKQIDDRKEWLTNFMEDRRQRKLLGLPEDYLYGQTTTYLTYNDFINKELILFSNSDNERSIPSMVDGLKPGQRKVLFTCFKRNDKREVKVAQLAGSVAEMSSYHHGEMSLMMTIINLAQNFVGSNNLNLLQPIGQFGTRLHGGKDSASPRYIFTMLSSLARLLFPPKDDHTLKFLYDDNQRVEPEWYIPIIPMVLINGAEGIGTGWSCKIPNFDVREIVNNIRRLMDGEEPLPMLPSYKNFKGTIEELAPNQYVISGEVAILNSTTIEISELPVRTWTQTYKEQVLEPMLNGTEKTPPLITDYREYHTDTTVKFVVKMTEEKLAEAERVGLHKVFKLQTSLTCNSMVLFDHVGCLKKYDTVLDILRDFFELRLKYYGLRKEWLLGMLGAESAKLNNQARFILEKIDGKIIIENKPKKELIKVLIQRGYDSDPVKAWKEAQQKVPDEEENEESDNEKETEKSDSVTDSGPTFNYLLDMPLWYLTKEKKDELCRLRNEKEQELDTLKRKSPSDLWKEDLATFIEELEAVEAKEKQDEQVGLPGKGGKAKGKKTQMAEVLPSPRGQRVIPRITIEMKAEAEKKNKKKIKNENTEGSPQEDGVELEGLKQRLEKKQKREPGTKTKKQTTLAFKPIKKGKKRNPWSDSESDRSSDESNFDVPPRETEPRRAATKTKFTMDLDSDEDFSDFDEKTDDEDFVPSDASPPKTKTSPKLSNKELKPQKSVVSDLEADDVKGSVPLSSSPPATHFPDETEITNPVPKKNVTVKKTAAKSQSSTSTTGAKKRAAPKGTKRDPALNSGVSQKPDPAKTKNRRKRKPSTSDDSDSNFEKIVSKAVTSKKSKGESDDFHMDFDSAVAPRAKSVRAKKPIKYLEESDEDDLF

## CN(C)c1ccc(Nc2nc(-c3ccncc3)nc3c2CC(N)CC3)cc1 (centres undefined)
[1]
  Activity: inactive
[2]
  inhibition: inactive
[3]
  inhibition: inactive
[4]
  Activity: inactive
[5]
  Activity: inactive
[6]
  inhibition: inactive
[7]
  Activity: Not Active
[8]
  Activity: inactive
[9]
  Activity: inactive
[10]
  Activity: inactive
[11]
  Activity: Not Active
[12]
  Activity: inactive
[13]
  inhibition (INH): Not Active
[14]
  Activity: inactive
[15]
  Activity: inactive
[16]
  Activity: inactive
[17]
  Activity: inactive
[18]
  inhibition: inactive
[19]
  Activity: inactive
[20]
  Activity: inactive
[21]
  inhibition: inactive
[22]
  Activity: inactive
[23]
  Activity: inactive
[24]
  Activity: inactive
[25]
  Activity: inactive
[26]
  inhibition: inactive
[27]
  Activity: inactive
[28]
  Activity: inactive
[29]
  Activity: inactive
[30]
  Activity: inactive
[31]
  inhibition (INH): Not Active
[32]
  Activity: inactive
[33]
  Activity: inactive
[34]
  Activity: inactive
[35]
  Activity: inactive
[36]
  CL/F: 116 mL/min
[37]
  inhibition: inactive
[38]
  Activity: inactive
[39]
  Activity: inactive
